BindingDB's records for doi:10.1021/jm030871u (2003)
Residues, ends and D or L forms follow the SMILES beside them. *: point of attachment. X1 = CC(C)CCC[C@@H](C)[C@H]1CCC2C3CC=C4C[C@H](SC[C@@H]5CCN6CC[C@@H](CSCC(=O)*)NC6=N5)CC[C@]4(C)C3CC[C@@]21C; X2 = CC(C)(C)[Si](OCC1CCN2CCC(CSCC(=O)*)NC2=N1)(c1ccccc1)c1ccccc1; OBn = c1ccc(CO*)cc1; Bn = c1ccc(C*)cc1

Target: Human immunodeficiency virus type 1 protease (Human immunodeficiency virus 1, UniProt Q72874)
Test: Competitive inhibition against HIV-1 Protease

Row | Ki [µM] | SMILES
1 | 0.4 | CC(C)CCC[C@@H](C)[C@H]1CCC2C3CC=C4C[C@H](SC[C@@H]5CCN6CC[C@@H](CSCC(=O)NCC(=O)N[C@@H](C)C(=O)N[C@H](C(=O)N[C@@H](CC(C)C)C(=O)N[C@@H](CC(N)=O)C(=O)N[C@@H](Cc7ccccc7)C(=O)OCc7ccccc7)[C@@H](C)OCc7ccccc7)NC6=N5)CC[C@]4(C)C3CC[C@@]21C (some centres not stated) (X1-GAT(Bn)LNF-OBn)
2 | 6 | CC[C@H](C)[C@H](NC(=O)CNC(=O)CSCC1CCN2CCC(CO[Si](c3ccccc3)(c3ccccc3)C(C)(C)C)N=C2N1)C(=O)N[C@@H](CO)C(=O)N[C@@H](Cc1ccc(O)cc1)C(=O)N[C@@H](CC(N)=O)C(=O)N[C@@H](CC(C)C)C(=O)OC (some centres not stated) [Bicyclic Guanidinium Subunit] (X2-GISYNL-OMe)
